From US9045517B2, “Glycosylated aminocoumarins and methods of preparing and uses of same” (University College London, priority 2010, dated 2015)
pIC50: −log10 of the molar value. Converted amounts (≈) assume the structure as drawn.

Experiments:
[1] = test system: MiaPaCa2 (pancreatic cancer); assay: MTT anti-proliferative assay, MiaPaCa2; type: cell-based; conditions: Homo sapiens, MIA PaCa-2, MiaPaCa2 cells, 24 h continuous exposure
Method: (§1) The cell number is estimated colorimetrically based on the transformation of the yellow MTT reagent (3-(4,5-Dimethylthiazol-2-yl)-2,5-diphenyltetrazolium bromide) to a purple formazan dye by mitochondrial enzymes.
(§2) Human cell lines derived from ovarian cancer (A2780, ECACC 93112519), lung cancer (A549, ATCC CCL-185), breast cancer (MCF7, ATCC HTB-22), pancreatic cancer (MiaPaCa2, ATCC CRL-1420) and brain cancer (U87MG, ATCC HTB-14), were obtained from the European Collection of Cell Cultures (ECACC, Salisbury, UK). The A2780, A549, MCF7 and MiaPaCa2 cells were grown in Dulbecco's Modified Eagle Medium (DMEM) supplemented with 10% fetal bovine serum (Biosera, UK), 1% L-glutamine and 1% non-essential aminoacids (Gibco, Invitrogen, USA). U87MG cells were grown in Minimal essential medium supplemented with 10% fetal bovine serum (Biosera, UK), 1% L-glutamine, 1% non-essential aminoacids and 1% Sodium piruvate (Gibco, Invitrogen, USA). Cells were grown in a 5% CO2, 95% humidity incubator. […] The compounds were dissolved in methanol at a maximum concentration of 20 mM, and serial decimal dilutions were prepared in methanol. For each compound and each concentration, 5 μl of the methanol solution were added over the cells, growing in 100 μl of cell culture medium per well (n=6). After 24 h of continuous drug exposure, the growth inhibition was determined using the MTT assay (Lancaster Synthesis Ltd, UK). The amount of dye was quantified spectrophotometrically as absorbance at λ=570 nm (ELx808, Bio-Tek Instruments, Inc.). The IC50 values were calculated by a dose-response analysis using the Origin 6.0® software.

[2] = test system: Escherichia coli; assay: MIC by micro-broth dilution against Escherichia coli, with or without PEI; type: cell-based
Method: Microtitre plates were incubated aerobically at 37° C. and read after one and four days. The concentration range tested was 128 to 0.5 μg/ml. A cell permeabilising agent, polyethylenimine (PEI) was used to assess the influence of cell membrane (and associated structures) as a barrier to novobiocin entry into the cell. Isopropyl β-D-1-thiogalactopyranoside (100 μM) was used to induce β-glycosidase and β-galactosidase expression from plasmids pSsβG and pBCSK, respectively. These enzymes can release the native drugs from the conjugates.

[3] = test system: U87MG (brain cancer); assay: MTT anti-proliferative assay, U87MG; type: cell-based; conditions: Homo sapiens, U-87 MG, U87MG cells, 24 h continuous exposure
Method: as §1, §2

[4] = test system: MCF7 (breast cancer); assay: MTT anti-proliferative assay, MCF7; type: cell-based; conditions: Homo sapiens, MCF7 cells, 24 h continuous exposure
Method: as §1, §2

[5] = test system: A2780 (ovarian cancer); assay: MTT anti-proliferative assay, A2780; type: cell-based; conditions: Homo sapiens, A2780 cells, 24 h continuous exposure
Method: as §1, §2

[6] = test system: A549 (lung cancer); assay: MTT anti-proliferative assay, A549; type: cell-based; conditions: Homo sapiens, A549 cells, 24 h continuous exposure
Method: as §1, §2

[7] = biological target: T1, DNA Gyrase (Escherichia coli, UniProt P0AES6); assay: DNA gyrase supercoiling assay (relaxed pBR322, agarose gel); type: biochemical; conditions: DNA Gyrase 1U, relaxed pBR322, 37 C, 1 hr
T1 construct: purchased
Method: DNA Gyrase (1U) is incubated with relaxed pBR322 (0.5 μg) in a reaction volume of 30 μL at 37 °C for 1 hr in TRIS-HCl (35 mM, pH 7.5), KCl (24 Mm), MgCl2 (4 mM), DTT (2 mM), spermidine (1.8 mM), ATP (1 mM), glycerol (6.5%, w/v), albumin (0.1 mg/mL).
After incubation the mixture was deproteinized with equal volumes of chloroformisoamyl alcohol (24:1) and the end point was determined by separating relaxed and supertwisted plasmid pBR322DNA by agarose gel electrophoresis (0.8% agarose with TBE buffer), running without Ethidium Bromide. After the run the gel is soaked, in tank buffer containing Ethidium Bromide, for 1 and half hours.

[8] = Toxicity relative to precursor (no method given); conditions: versus novobiocin

SMILES	pIC50 [1]	increased activity against Escherichia coli in the presence of PEI ([2]; with polyethylenimine (PEI), independent of β-galactosidase)	pIC50 [3]	pIC50 [4]	pIC50 [5]	pIC50 [6]	re-growth on prolonged incubation at concentrations above the MIC ([2]; prolonged incubation up to 4 days)	MIC in DNA gyrase assay [7] [µM]	toxicity compared with precursor [8]
CO[C@@H]1[C@@H](OC(N)=O)[C@@H](O)[C@H](Oc2ccc3c(O)c(NC(=O)c4ccc(O)c(CC=C(C)C)c4)c(=O)oc3c2C)OC1(C)C [Novobiocin, reference compound]	3.49	16-32 fold	3.24	< 3.00	3.72	< 3.00			
CO[C@@H]1C(OC(N)=O)C(O)[C@H](Oc2ccc3c(O[C@@H]4O[C@H](CO)[C@H](O)[C@H](O)[C@H]4O)c(NC(=O)c4ccc(O)c(CC=C(C)C)c4)c(=O)oc3c2C)OC1(C)C (some centres unmarked) [Galactosyl_Novobiocin]	4.52		4.52	4.40	4.00	4.00	did not lead to re-growth	3 (≈ 2.32 µg/mL)	
CO[C@@H]1C(OC(N)=O)C(O)[C@H](Oc2ccc3c(O[C@@H]4OC(CO)[C@@H](O)C(O)C4O)c(NC(=O)c4ccc(O)c(CC=C(C)C)c4)c(=O)oc3c2C)OC1(C)C (stereo partly drawn) [Glucosyl_Novobiocin, β-4′-O-glucosyl Novobiocin]	5.00		4.70	5.00	3.89	4.22		3 (≈ 2.32 µg/mL)	less toxic than its precursor
